Reference: patent US11299472B2, “Fumarate salt of (R)-3-(1-(2,3-dichloro-4-(pyrazin-2-yl)phenyl)-2,2,2- trifluoroethyl)-1-methyl-1-(1-methylpiperidin-4-yl) urea, methods of preparation, and uses thereof” (Helsinn Healthcare SA, priority 2017, dated 2022)

Legend:
[1] = Rat pharmacokinetic study, single oral HM04 fumarate salt 3, 10, 30 mg/kg (Example 10); format: in vivo, male Sprague Dawley rats
Protocol: (§1) The pharmacokinetics of HM04 in plasma after single oral administration of HM04 fumarate salt to 6-week old male Sprague Dawley rats and male Beagle dogs (1-5 years of age) was investigated. Test formulations of 0.6 mg/mL, 2 mg/mL, and 6 mg/mL HM04 fumarate salt (based on weight of the free base) were prepared in 5% glucose solution. Doses of 3, 10, and 30 mg/kg HM04 fumarate salt (based on weight of the free base) were administered by gastric gavage as a 5 mL/kg dose volume of each of the three test formulations. Four animals were in each dose group. The formulation was administered to the dogs in fasting conditions with food provided three hours post-dosing.
A comparison of the plasma concentration of HM04 (ng/mL) in rats over time is provided in FIG. 19 and a summary of the pharmacokinetic analysis is provided in Table 5, below. […] The standard deviation associated with the mean oral bioavailability was calculated according to the formula: SDq=[^2√{square root over ((my^2·SDx^2+mx^2−SDy^2))}]/my^2 where q=mean bioavailability; mx=oral dose-normalized mean AUC, and my=IV dose-normalized mean AUC.
(§2) Plasma HM04 concentrations were measured by LC-MS/MS following protein precipitation in the 96-well plate format. At the time of analysis samples were thawed out at ambient temperature. Aliquots of 25 μL of rat or dog K3EDTA plasma were spiked with 300 μL of internal standard (25 ng/mL of HM04-d8 in acetonitrile). After gentle vortex mixing for 5 minutes and centrifugation at 2010 g for 15 minutes at 4° C., an aliquot of 100 μL of the organic phase was transferred into a fresh 96-well polypropylene plate, using a P3-Evolution robotic system (Perkin Elmer). Following dilution with 100 μL of […] ammonium formate pH 3.5, an aliquot of 10 μL was injected into the LC-MS/MS system.

[2] = Dog pharmacokinetic study, single oral HM04 fumarate salt 3, 10, 30 mg/kg (Example 10); format: in vivo, male Beagle dogs
Protocol: as §1
Oral absolute bioavailability at 3 mg/kg was calculated from the ratio of individual oral AUC∞ to the individual AUC∞ values determined following intravenous administration of 3 mg/kg HM04 fumarate salt (based on weight of the free base) to the same four male Beagle dogs.
Oral absolute bioavailability at 10 mg/kg was calculated from the ratio of individual oral AUC∞ to the individual AUC∞ values determined following intravenous administration of 10 mg/kg HM04 fumarate salt (based on weight of the free base) to the same four male Beagle dogs.
as §2

[3] = test system: Snord116+/− (Het) mice and wild-type (WT) littermates; assay: Food intake after acute administration in Prader-Willi mouse model; format: in vivo; conditions: for cumulative food intake: fasted 16 hours
Description: The effect of HM04 fumarate salt on food intake behavior and glucose tolerance was investigated in the Snord116+/−(Het) mouse genetic model of Prader-Willi syndrome (Het mouse) compared to wild-type (WT) littermates. Since D2R agonists suppress food intake, the FDA approved D2R agonist cabergoline was used as an experimental control. Phenotypic characteristics of this PWS mouse model include hyperphagia, postnatal growth retardation, high ghrelin, and low growth hormone. Ding F., et al. SnoRNA Snord116 (Pwcr1/MBII-85) deletion causes growth deficiency and hyperphagia in mice. PloS one. 2008; 3(3):e1709. These PWS mice eat more frequently than WT littermates, particularly during the light cycle and are more motivated to work for food (more level presses) (data not shown).
Acute administration: Mice (3-, 7-, and 12-month-old) were fasted for 16 hours and then administered a single intraperitoneal injection of vehicle or vehicle containing HM04, cabergoline, or HM04 and cabergoline according to Table 8, below.
HM04 was dissolved in water for injection and cabergoline was dissolved in DMSO to provide a 5% DMSO/water solution for injection. Mice were then given free access to food, and cumulative food intake was measured at 1, 2, 4, 8, 12, and 24 hours post-dosing. […] Data was analyzed for significance using 2-way ANOVA, Bonferroni post hoc test (Graphpad Prism, Prism 5.0, San Diego, Calif.).

- bioavailability ([1]; male, Sprague Dawley, plasma, oral doses of 3 and 10 mg/kg): 40 to 50%
- detectable pre-dose concentrations of HM04 ([2]; 3 mg/kg oral, three of the four dogs, range): 5.15 to 8.31 ng/mL
- detectable pre-dose concentration ([2]; oral 10 mg/kg, Dog 2): 8.60 ng/mL
Structure (SMILES): CN1CCC(N(C)C(=O)N[C@H](c2ccc(-c3cnccn3)c(Cl)c2Cl)C(F)(F)F)CC1 [HM04, (R)-3-(1-(2,3-dichloro-4-(pyrazin-2-yl)phenyl)-2,2,2-trifluoroethyl)-1-methyl-1-(1-methylpiperidin-4-yl)urea]
- exposure to HM04 versus dose ([1]; oral 3, 10, 30 mg/kg): more than a proportional increase at 30 mg/kg
- cumulative food intake ([3]; 3-month-old Het mice, HM04 10 mg/kg single i.p.): significantly suppressed food intake at 12 and 24 hours post-dosing
- cumulative food intake ([3]; 3-month-old WT mice, HM04 10 mg/kg single i.p.): failed to inhibit food intake
- cumulative food intake ([3]; 7-month-old Het mice, HM04 10 mg/kg single i.p.): did not inhibit food intake
- food intake ([3]; 7-month-old Het mice, HM04 30 mg/kg single i.p.): inhibited food intake for up to 8 hours
- cumulative food intake ([3]; 7-month-old WT mice, HM04 10 mg/kg single i.p.): did not inhibit food intake
- food intake ([3]; 7-month-old WT mice, HM04 30 mg/kg single i.p.): no apparent effect on food intake
- food intake ([3]; 12-month-old Het mice, HM04 10 mg/kg single i.p., 1 hour after dosing): suppressed food intake
- food intake ([3]; 12-month-old Het mice, HM04 10 mg/kg single i.p., after 1 hour (up to 24 hours)): that level of inhibition was not maintained
- food intake ([3]; 12-month-old WT mice, HM04 10 mg/kg i.p.): did not reduce food intake
